Entries after “also recorded” stand apart in the source; their conditions may differ.
T1: human ZnT8 W325 (W-form) (Homo sapiens, UniProt Q8IWU4, R325W)
T1 construct: The human ZnT8 cDNA insert was further subcloned into a pcDNA5/FRT/TO expression vector; made in house
T1 sequence (Q8IWU4 1-320 isoform Q8IWU4-2 R276W): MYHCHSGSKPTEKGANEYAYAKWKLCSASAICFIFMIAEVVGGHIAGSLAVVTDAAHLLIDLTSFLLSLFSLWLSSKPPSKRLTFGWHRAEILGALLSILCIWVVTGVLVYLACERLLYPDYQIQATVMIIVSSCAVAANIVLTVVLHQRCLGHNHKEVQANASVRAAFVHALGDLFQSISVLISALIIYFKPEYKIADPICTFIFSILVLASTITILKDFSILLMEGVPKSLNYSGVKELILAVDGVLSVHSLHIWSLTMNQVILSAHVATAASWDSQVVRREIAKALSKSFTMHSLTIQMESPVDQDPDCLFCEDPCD

T2: human ZnT8 R325 (R-form) (Homo sapiens, UniProt Q8IWU4)
T2 construct: The human ZnT8 cDNA insert was further subcloned into a pcDNA5/FRT/TO expression vector; made in house
T2 sequence (Q8IWU4 1-320 isoform Q8IWU4-2): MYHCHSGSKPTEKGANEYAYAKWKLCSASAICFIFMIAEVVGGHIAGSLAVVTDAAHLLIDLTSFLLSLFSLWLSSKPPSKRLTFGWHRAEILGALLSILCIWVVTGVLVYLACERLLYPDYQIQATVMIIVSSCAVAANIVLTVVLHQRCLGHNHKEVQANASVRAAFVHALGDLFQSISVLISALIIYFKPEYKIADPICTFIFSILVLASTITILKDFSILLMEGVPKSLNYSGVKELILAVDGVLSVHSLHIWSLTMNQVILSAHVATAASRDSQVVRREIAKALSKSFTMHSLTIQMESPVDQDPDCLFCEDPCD

T3: human ZnT8 AA-form (H220A, D224A) (Homo sapiens, UniProt Q8IWU4, D224A/H220A)
T3 construct: The human ZnT8 cDNA insert was further subcloned into a pcDNA5/FRT/TO expression vector; made in house
T3 sequence (Q8IWU4 1-320 isoform Q8IWU4-2 H171A/D175A): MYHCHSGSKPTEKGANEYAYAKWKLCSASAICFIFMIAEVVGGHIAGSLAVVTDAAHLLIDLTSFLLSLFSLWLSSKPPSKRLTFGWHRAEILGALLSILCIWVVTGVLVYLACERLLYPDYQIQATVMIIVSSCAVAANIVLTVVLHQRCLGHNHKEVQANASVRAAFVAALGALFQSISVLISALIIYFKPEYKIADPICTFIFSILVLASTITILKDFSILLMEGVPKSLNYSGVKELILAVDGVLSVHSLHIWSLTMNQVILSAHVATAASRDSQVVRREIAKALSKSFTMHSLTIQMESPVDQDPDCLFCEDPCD


Columns and labels:
[1] = biological target: T1, human ZnT8 W325 (W-form); experiment: Stopped-flow zinc transport kinetics in reconstituted proteoliposomes (Fluozin-3), W325 variant; format: biochemical; conditions: for effect on zinc transport activity (Vmax), W-form: lipid in reconstituted proteoliposomes, reference level = Vmax of the AA-form; for increase of Vmax, W-form: third anionic phospholipid added to DOPC:DOPE (2:1), giving 2:1:1
Procedure: (§1) 24 hour after induction, early-passage cells (passage number <10) at 90% confluence were scraped on ice and collected in the assay buffer supplemented with complete mini EDTA free protease cocktail tablets as specified by the manufacturer (Sigma). Cell suspension was homogenized by 40 passages through a high-shear fluid processor at 120 psi (Microfluidics), and then the membrane fraction was pelleted by ultracentrifugation at 258k×g for 60 min. The membrane pellet was re-suspended in a solubilization buffer (assay buffer plus 25% glycerol). DDM was added to solubilize the membrane according to the weight of the membrane pellet at a DDM-to-membrane ratio of 1:5 (wt/wt). The membrane crude extract was cleared off debris by ultracentrifugation at 258k×g for 15 min. The supernatant was applied to Talon affinity resins (GE Healthcare) and incubated at 8° C. on a rotary shaker for 45 min. The resin was then minimally washed by solubilization buffer supplemented with 25 mM imidazole, and then the immobilized ZnT8 variant was eluted by increasing the imidazole concentration to 250 mM. The molecular identity of the eluted ZnT8 variant was validated by western blotting using two antibodies to the C-terminal His-tag (Cell signaling Technology, cat. #2365S, catalog number, 1:1000 dilution) and to a linear peptide epitope (Proteintech, cat. #16169-1-AP, 1:500 dilution), respectively. The purity of the eluted proteins was assessed by SDS-PAGE with imperial protein staining (Thermo Scientific). Preformed liposomes with a defined lipid composition as indicated were prepared by mixing stock solutions of lipids in chloroform. The lipid mixture was dried under a stream of nitrogen gas, and traces of chloroform were removed by placing the lipids under vacuum overnight at room temperature. Dried lipids were rehydrated in a Pyrex borosilicate glass tube with assay buffer to a lipid concentration of 50 mg/ml, and then sonicated in a cup-horn sonicator at 100 W for 2 min (cycles of 10 son, 10 s off) in an ice-chilled water bath. The resulting liposome suspension was diluted with assay buffer to a final lipid concentration of 7.5 mg/ml with DDM added at a DDM/lipids ratio of 1:1 (wt/wt). The DDM-liposome mixture was incubated at room temperature on a rotary shaker for ˜3 hours until a gel-like appearance occurred. Reconstitution of ZnT8 variants took place immediately after eluted from Talon resins by mixing a ZnT8 variant, or an equal volume of elution buffer, with DDM-destabilized preformed liposomes at an estimated protein-to-lipid wt/wt ratio of 1:200. The reconstitution mixture was incubated on a rotary shaker at 8° C. for 1 hr, then freshly prepared, methanol-washed polystyrene beads (Bio-Beads, SM-2, Bio-Rad) were added to the reconstitution mixture in a 60:1 wt/wt ratio to DDM. After incubation overnight at 8° C., the resulting proteoliposomes or liposomes (negative control) were separated from the detergent-soaked polystyrene beads, and pelleted by ultracentrifugation (258k×g, 2 hr). […]
(§2) Experiments were performed at 8° C. on a SFM-3000 stopped-flow apparatus (Bio-logic). […] The reactants were excited at 490 nm, and emissions were monitored at 525 nm using a 10 nm bandpass cut-off filter. Kinetic traces were recorded over a time course of 10 seconds with instrument offset and gain kept constant for all the experiments. […]

[2] = biological target: T2, human ZnT8 R325 (R-form); experiment: Stopped-flow zinc transport kinetics in reconstituted proteoliposomes (Fluozin-3), R325 variant; format: biochemical; conditions: for effect on zinc transport activity (Vmax), R-form: lipid in reconstituted proteoliposomes, reference level = Vmax of the AA-form; for increase of Vmax, R-form: third anionic phospholipid added to DOPC:DOPE (2:1), giving 2:1:1
Procedure: as §1, §2

[3] = biological target: T3, human ZnT8 AA-form (H220A, D224A); experiment: Stopped-flow zinc transport kinetics in reconstituted proteoliposomes (Fluozin-3), AA-form; format: biochemical
Procedure: 24 hour after induction, early-passage cells (passage number <10) at 90% confluence were scraped on ice and collected in the assay buffer supplemented with complete mini EDTA free protease cocktail tablets as specified by the manufacturer (Sigma). Cell suspension was homogenized by 40 passages through a high-shear fluid processor at 120 psi (Microfluidics), and then the membrane fraction was pelleted by ultracentrifugation at 258k×g for 60 min. The membrane pellet was re-suspended in a solubilization buffer (assay buffer plus 25% glycerol). DDM was added to solubilize the membrane according to the weight of the membrane pellet at a DDM-to-membrane ratio of 1:5 (wt/wt). The membrane crude extract was cleared off debris by ultracentrifugation at 258k×g for 15 min. The supernatant was applied to Talon affinity resins (GE Healthcare) and incubated at 8° C. on a rotary shaker for 45 min. […] The purity of the eluted proteins was assessed by SDS-PAGE with imperial protein staining (Thermo Scientific). […]
as §2

[4] = system: HEK293 cells; experiment: Vesicular zinc uptake in real time (Zinpyr-1, 96-well microplate); format: cell-based, human; conditions: 383 nM free zinc, 1 uM pyrithione, 15° C., induced expression
Procedure: The free zinc concentration in the ADA-EGTA dual buffering system was calculated using maxchelator (maxchelator.stanford.edu). Induced cells were loaded with Zinpry-1, trypsinized, resuspended in an ice-chilled plain uptake buffer with no ZnSO4 added. Cells with the expression of each ZnT8 variant or the empty vector were counted, adjusted to a density of 4×10^6 cells/ml, and dispensed in 50-[…] aliquots to a clear-bottom 96-well microplate (Greiner bio-one). Initial Zinpry-1 fluorescence (F0) was recorded from the bottom on a Flexstation-3 microplate reader (Molecular dynamics), and then zinc-uptakes were initiated by adding 50 ul uptake buffers with 2× free zinc concentrations to each well. The Zinpry-1 fluorescence increases in response to various free zinc concentrations were recorded at 15° C. in the kinetic mode of Flexstation over a time course of 10 min and normalized to Zinpyr-1 loading (F0). The fluorescence responses reached a linear phase in 2 min after the uptake temperature approached equilibrium. The rates of zinc uptake were calculated by linear regression of the Zinpyr-1 signals from 2 to 10 min. All measurements were performed in 12 replicates, and fluorescence readings were obtained by averaging over 8-10 measurements that gave consistent results. Most aberrant measurements occurred in the first and last two columns of the microplate due to pipetting errors.

Row | Molecule | effect on zinc transport activity (Vmax), W-form [1] | effect on zinc transport activity (Vmax), R-form [2] | increase of Vmax, W-form [1] [fold] | increase of Vmax, R-form [2] [fold] | further results
1 | CC(C)CCC[C@@H](C)[C@H]1CC[C@H]2[C@@H]3CC=C4C[C@@H](O)CC[C@]4(C)[C@H]3CC[C@]12C [cholesterol] | below the reference level of the AA-form; also recorded: strongly inhibit | below the reference level of the AA-form; also recorded: strongly inhibit | – | – | –
2 | Lysophosphatidylcholine [LPC] | below the reference level of the AA-form; also recorded: strongly inhibit | below the reference level of the AA-form; also recorded: strongly inhibit | – | – | –
3 | CCCCCCCC/C=C\CCCCCCCC(=O)OC[C@H](COP(=O)(O)OCCN)OC(=O)CCCCCCC/C=C\CCCCCCCC [DOPE, 1,2-di-(9Z-octadecenoyl)-sn-glycero-3-phosphoethanolamine] | modest effects | progressively reduced the Vmax | – | – | –
4 | CCCCCCCC/C=C\CCCCCCCC(=O)OC[C@H](COP(=O)(O)OCC(O)CO)OC(=O)CCCCCCC/C=C\CCCCCCCC (stereo partly shown) [DOPG] | – | – | 2.0 | 6.1 | –
5 | CCCCCCCC/C=C\CCCCCCCC(=O)OC[C@H](COP(=O)(O)OC[C@H](N)C(=O)O)OC(=O)CCCCCCC/C=C\CCCCCCCC [DOPS, 1,2-dioleoyl-sn-glycero-3-phospho-L-serine] | – | – | 2.3 | 3.5 | –
6 | AA-form: His-tagged human ZnT8 with H220A, D224A double mutation of the predicted transport-site (protein, UniProt Q8IWU4 1-369, looked up, variant H220A D224A, His tag, His-tagged human ZnT8 with H220A, D224A double mutation of the predicted transport-site) Proton-coupled zinc …: MEFLERTYLVNDKAAKMYAFTLESVELQQKPVNKDQCPRERPEELESGGMYHCHSGSKPTEKGANEYAYAKWKLCSASAICFIFMIAEVVGGHIAGSLAVVTDAAHLLIDLTSFLLSLFSLWLSSKPPSKRLTFGWHRAEILGALLSILCIWVVTGVLVYLACERLLYPDYQIQATVMIIVSSCAVAANIVLTVVLHQRCLGHNHKEVQANASVRAAFVAALGALFQSISVLISALIIYFKPEYKIADPICTFIFSILVLASTITILKDFSILLMEGVPKSLNYSGVKELILAVDGVLSVHSLHIWSLTMNQVILSAHVATAASRDSQVVRREIAKALSKSFTMHSLTIQMESPVDQDPDCLFCEDPCD | – | – | – | – | Km increase compared to the R-form [3]: 24 fold; Vmax/Km decrease compared to the R-form [3]: 59 fold; rate of vesicular zinc accumulation [4]: significantly faster than the basal level of Blk

From US11016085B2, “ZNT8 assays for drug development and pharmaceutical compositions” (THE JOHNS HOPKINS UNIVERSITY, priority 2016, dated 2021)
